Measured values reported in US9006450B2 (Boehringer Ingelheim International GmbH, priority 2010, dated 2015).

biological target: T1, human ACC2 (Homo sapiens, UniProt O00763); assay: ACC2 assay, spectrophotometric 384 well assay (NADH-linked, coupled lactate dehydrogenase/pyruvate kinase); format: biochemical; details: ACC2 assay, hACC2 construct lacking 128 N-terminal amino acids, 25° C., 340 nm; read-out: IC50
T1 construct: made in house; host or cells: insect cells (baculoviral expression system)
T1 sequence (O00763 129-2458 limits assumed): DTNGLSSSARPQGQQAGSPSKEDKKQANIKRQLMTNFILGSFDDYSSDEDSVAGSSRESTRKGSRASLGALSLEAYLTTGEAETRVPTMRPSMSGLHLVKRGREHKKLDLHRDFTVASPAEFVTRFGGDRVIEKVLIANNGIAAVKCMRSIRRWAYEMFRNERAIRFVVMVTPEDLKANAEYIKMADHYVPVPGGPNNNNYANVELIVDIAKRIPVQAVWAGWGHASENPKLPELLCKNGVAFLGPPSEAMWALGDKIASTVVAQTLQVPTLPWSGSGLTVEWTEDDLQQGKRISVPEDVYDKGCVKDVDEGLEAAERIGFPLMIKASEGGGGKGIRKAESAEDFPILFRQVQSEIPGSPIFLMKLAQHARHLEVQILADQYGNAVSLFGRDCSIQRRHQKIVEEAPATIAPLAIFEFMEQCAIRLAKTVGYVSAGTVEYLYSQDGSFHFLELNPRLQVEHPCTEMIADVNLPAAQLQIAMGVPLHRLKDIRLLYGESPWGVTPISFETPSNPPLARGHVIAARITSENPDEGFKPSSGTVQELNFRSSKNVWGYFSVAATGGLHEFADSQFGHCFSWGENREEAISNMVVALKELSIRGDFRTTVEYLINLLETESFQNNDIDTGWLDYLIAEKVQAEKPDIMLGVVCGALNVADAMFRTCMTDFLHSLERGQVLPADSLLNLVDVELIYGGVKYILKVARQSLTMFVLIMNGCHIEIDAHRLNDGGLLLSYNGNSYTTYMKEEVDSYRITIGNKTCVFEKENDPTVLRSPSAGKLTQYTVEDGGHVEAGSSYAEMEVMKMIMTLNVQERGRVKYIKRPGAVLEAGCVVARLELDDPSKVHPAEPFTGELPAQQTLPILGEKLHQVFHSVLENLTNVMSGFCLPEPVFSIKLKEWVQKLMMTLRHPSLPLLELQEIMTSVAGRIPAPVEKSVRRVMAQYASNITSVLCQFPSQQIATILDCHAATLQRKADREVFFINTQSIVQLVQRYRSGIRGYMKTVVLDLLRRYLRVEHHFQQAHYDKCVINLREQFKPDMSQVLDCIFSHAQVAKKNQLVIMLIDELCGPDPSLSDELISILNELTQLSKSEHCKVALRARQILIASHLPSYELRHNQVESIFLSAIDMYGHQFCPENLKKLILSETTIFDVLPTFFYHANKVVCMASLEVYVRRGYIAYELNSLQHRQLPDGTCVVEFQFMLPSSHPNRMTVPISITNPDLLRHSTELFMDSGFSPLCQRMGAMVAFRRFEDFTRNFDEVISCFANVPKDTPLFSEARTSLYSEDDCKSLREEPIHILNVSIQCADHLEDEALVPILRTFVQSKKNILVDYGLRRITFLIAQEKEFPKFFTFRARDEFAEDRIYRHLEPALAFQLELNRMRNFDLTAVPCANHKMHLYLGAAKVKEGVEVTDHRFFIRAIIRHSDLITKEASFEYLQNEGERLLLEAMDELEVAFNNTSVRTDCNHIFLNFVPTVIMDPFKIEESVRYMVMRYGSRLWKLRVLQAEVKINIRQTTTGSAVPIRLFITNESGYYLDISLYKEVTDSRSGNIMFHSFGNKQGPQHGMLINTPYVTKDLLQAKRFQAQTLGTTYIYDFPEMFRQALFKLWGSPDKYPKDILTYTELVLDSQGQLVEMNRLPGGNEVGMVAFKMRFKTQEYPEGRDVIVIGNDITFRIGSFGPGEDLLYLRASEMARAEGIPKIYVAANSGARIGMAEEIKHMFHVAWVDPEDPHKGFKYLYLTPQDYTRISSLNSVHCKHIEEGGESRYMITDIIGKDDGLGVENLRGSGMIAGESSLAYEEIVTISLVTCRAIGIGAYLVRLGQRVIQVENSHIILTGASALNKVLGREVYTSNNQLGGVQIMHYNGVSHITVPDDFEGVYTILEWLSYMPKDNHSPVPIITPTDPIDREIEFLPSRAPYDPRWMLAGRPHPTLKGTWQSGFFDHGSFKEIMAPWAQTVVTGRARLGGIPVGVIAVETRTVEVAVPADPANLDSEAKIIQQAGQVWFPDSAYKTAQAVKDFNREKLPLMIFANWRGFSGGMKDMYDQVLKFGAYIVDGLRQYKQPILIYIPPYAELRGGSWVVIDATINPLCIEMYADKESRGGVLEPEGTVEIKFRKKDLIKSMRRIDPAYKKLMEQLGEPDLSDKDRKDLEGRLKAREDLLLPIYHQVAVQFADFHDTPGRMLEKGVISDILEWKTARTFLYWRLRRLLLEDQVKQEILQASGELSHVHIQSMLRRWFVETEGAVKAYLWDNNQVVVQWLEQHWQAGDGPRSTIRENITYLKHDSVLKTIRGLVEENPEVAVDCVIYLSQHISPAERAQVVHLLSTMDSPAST
Description: Spectrophotometric 384 Well Assay
Malonyl CoA formation by acetyl CoA carboxylases is stoichometrically linked to the consumption of ATP. ACC2 activity is measured in a NADH-linked kinetic method measuring ADP generated during the ACC reaction using a coupled lactate dehydrogenase/pyruvate kinase reaction.
For biological testing, a human ACC2 construct which lacks the 128 amino acids at the N-terminus for increased solubility (nt 385-6966 in Genbank entry AJ575592) is cloned. The protein is then expressed in insect cells using a baculoviral expression system. Protein purification is performed by anion exchange.
All compounds are dissolved in dimethyl sulfoxide (DMSO) to a concentration of 10 mM.
Assay reactions are then carried out in 384-well plates, with hACC2 in an appropriate dilution and at final assay concentrations (f.c.) of 100 mM Tris (pH 7.5), 10 mM trisodium citrate, 25 mM KHCO3, 10 mM MgCl2, 0.5 mg/mL BSA, 3.75 mM reduced L-glutathione, 15 U/mL lactate dehydrogenase, 0.5 mM phosphoenolpyruvate, 15 U/mL pyruvate kinase, compounds at different concentrations at final DMSO concentrations of 1%.
The enzymatic reaction is then started by addition of a mixture of NADH, acetyl Coenzyme A (both 200 μM f.c.) and ATP (500 uM f.c.). The decrease of the optical density (slope S) is then determined at 25° C. at a wavelength of 340 nm over 15 minutes in a spectrophotometric reader.
Each assay microtiter plate contains wells with vehicle instead of compound as controls for the non-inhibited enzyme (100% CTL; ‘HIGH’) and wells without acetyl-CoA as controls for non-specific NADH degradation (0% CTL; ‘LOW’).
The slope S is used for calculation of % CTL=(S(compound)−S('LOW'))/(S('HIGH')−S('LOW'))*100. Compounds will give values between 100% CTL (no inhibition) and 0% CTL (complete inhibition).
For IC50 value determination, the sample slope in the presence of the test compound after subtraction of the low controls (S(compound)−S('LOW')) are used.
An IC50 value is derived from the compound slopes at different dosages after subtraction of the low controls (S(compound)−S('LOW')) by non-linear regression curve fitting (equation y=(A+((B−A)/(1+((C/x)^D))))).

SMILES | IC50 [nM]
CC(=O)N[C@@H](C)c1ccc(C2CCN(c3ncc(-c4ccc(Cl)cc4)cn3)CC2)cc1 [Example 4.37] | 300
CCOc1cc(N2CCC(c3ccc([C@H](C)NC(=O)OC)cc3)CC2)ccn1 [Example 1.11] | 300
CCOc1ccc(N2CCC(c3ccc([C@H](C)NC(=O)c4ccco4)cc3)CC2)cc1 [Example 6.4] | 2100
CC(=O)N[C@@H](C)c1ccc(C2CCN(c3ccc(OC4CC4)cc3F)CC2)cc1 [Example 1.189] | 60
COC(=O)N[C@@H](C)c1ccc(C2CCN(c3ncc4nc(-c5ccccc5)oc4n3)CC2)cc1 [Example 4.48] | 130
CC(=O)N[C@@H](C)c1ccc(C2CCN(c3ncc(-c4ccncc4)cn3)CC2)cc1 [Example 10.16] | 710
CC(=O)N[C@@H](C)c1ccc(C2CCN(c3ncc(-c4ccc(C)cc4Cl)cn3)CC2)cc1 [Example 10.66] | 160
CC(=O)N[C@@H](C)c1ccc(C2CCN(c3cccc(OC4CCC4)c3)CC2)cc1 [Example 1.88] | 540
CC(=O)N[C@@H](C)c1ccc(C2CCN(c3ccc(-c4ccccc4)cn3)CC2)cc1 [Example 4.15] | 220
COC(=O)N[C@@H](C)c1ccc(C2CCN(c3ccc(OC4CCC4)cc3)CC2)cc1 [Example 1.12] | 80
C[C@H](NC(=O)C1CC1)c1ccc(C2CCN(c3ncc4nc(-c5ccsc5)oc4n3)CC2)cc1 [Example 4.301] | 390
CC(=O)N[C@@H](C)c1ccc(C2CCN(c3ncc(-c4ccc(Cl)c(C)c4)cn3)CC2)cc1 [Example 10.76] | 110
CCCOc1ccc(N2CCC(c3ccc([C@H](C)NC(C)=O)cc3)CC2)cc1OC [Example 8.33] | 3500
CCCOc1ccc(N2CCC(c3ccc([C@H](C)NC(C)=O)cc3)CC2)cc1Cl [Example 8.34] | 260
CC(C)Oc1cccc(N2CCC(c3ccc([C@H](C)NC(=O)C4CC4)cc3)CC2)c1 [Example 1.78] | 3400
CC(=O)N[C@@H](C)c1ccc(C2CCN(c3ccc(OCC4CC4)nc3)CC2)cc1 [Example 1.59] | 140
CC(=O)N[C@@H](C)c1ccc(C2CCN(c3ncc(-c4ccc5[nH]ncc5c4)cn3)CC2)cc1 [Example 10.86] | 5900
CCOc1ccc(N2CCC(c3ccc([C@H](C)NC(=O)c4cnon4)cc3)CC2)cc1 [Example 6.36] | 9100
CC(=O)N[C@@H](C)c1ccc(C2CCN(c3cnn(Cc4ccccc4)c3)CC2)cc1 [Example 2.13] | 1900
CC(=O)N[C@@H](C)c1ccc(C2CCN(c3ccc(OC4CCC4)c(C#N)c3)CC2)cc1 [Example 8.12] | 2300
CC(=O)N[C@@H](C)c1ccc(C2CCN(c3ncc(-c4ccc(C)c(C)c4)cn3)CC2)cc1 [Example 10.47] | 270

SMILES | IC50 [nM]
CC(=O)N[C@@H](C)c1ccc(C2CCN(c3ccc(-c4ccc(C#N)s4)cn3)CC2)cc1 [Example 10.308] | 80
CC(=O)N[C@@H](C)c1ccc(C2CCN(c3ncc(-c4ccc5c(c4)OCCCO5)cn3)CC2)cc1 [Example 10.26] | 410
CCCOc1ccc(N2CCC(c3ccc([C@H](C)NC(=O)C4CC4)cc3)CC2)nc1 [Example 5.57] | 230
COC(=O)N[C@@H](C)c1ccc(C2CCN(c3ccc4c(c3)OCCO4)CC2)cc1 [Example 1.17] | 450
CC(=O)N[C@@H](C)c1ccc(C2CCN(c3ncc(-c4cccs4)cn3)CC2)cc1 [Example 10.130] | 40
CC(=O)N[C@@H](C)c1ccc(C2CCN(c3ncccc3C)CC2)cc1 [Example 5.49] | 2600
COc1cc(OC)cc(-c2cnc(N3CCC(c4ccc([C@H](C)NC(C)=O)cc4)CC3)nc2)c1 [Example 10.34] | 210
CC(=O)N[C@@H](C)c1ccc(C2CCN(c3cccc(OCC4CCOCC4)c3)CC2)cc1 [Example 9.13] | 570
COCCOc1ccc(N2CCC(c3ccc([C@H](C)NC(C)=O)cc3)CC2)cc1C#N [Example 8.20] | 12000
CC(=O)N[C@@H](C)c1ccc(C2CCN(c3ncc(C(F)(F)F)cc3Cl)CC2)cc1 [Example 5.16] | 260
COC(=O)N[C@@H](C)c1ccc(C2CCN(c3ccnc(OC(C)C)c3)CC2)cc1 [Example 1.136] | 500
CC(=O)N[C@@H](C)c1ccc(C2CCN(c3ccc(C(F)(F)F)cn3)CC2)cc1 [Example 4.17] | 440
CCOCC(=O)N[C@@H](C)c1ccc(C2CCN(c3ccc(OCC)cc3)CC2)cc1 [Example 6.17] | 1900
CC(=O)N[C@@H](C)c1ccc(C2CCN(c3ccc(OCC4CC4)c(F)c3)CC2)cc1 [Example 9.41] | 220
CC(=O)N[C@@H](C)c1ccc(C2CCN(c3cccc(OCC4CCC4)c3)CC2)cc1 [Example 9.12] | 250
CCC(=O)N[C@@H](C)c1ccc(C2CCN(c3ccnc(Oc4ccccc4)c3)CC2)cc1 [Example 1.153] | 520
CC(=O)N[C@@H](C)c1ccc(C2CCN(c3ccc(C(=O)C4CC4)cn3)CC2)cc1 [Example 5.21] | 860
CCCOc1ccc(N2CCC(c3ccc([C@H](C)NC(C)=O)cc3)CC2)cc1C#N [Example 8.32] | 3200
CC(=O)N[C@@H](C)c1ccc(C2CCN(c3nccc(-c4ccccc4)n3)CC2)cc1 [Example 4.21] | 520
CCCOc1ccc(N2CCC(c3ccc([C@H](C)NC(=O)N(C)C)cc3)CC2)c(OC)c1 [Example 1.124] | 180
CC(=O)N[C@@H](C)c1ccc(C2CCN(c3ncc(-c4ccc(F)cc4)cc3F)CC2)cc1 [Example 10.311] | 180

Other lines, results leading:

IC50 [nM] | SMILES
290 | CC(=O)N[C@@H](C)c1ccc(C2CCN(c3ncc(-c4nc5ccccc5[nH]4)cn3)CC2)cc1 [Example 23.1, (S)—N-[1-(4-{1-[5-(1H-Benzoimidazol-2-yl)-pyrimidin-2-yl]-piperidin-4-yl}-phenyl)-ethyl]-acetamide]
1500 | CC(=O)N[C@@H](C)c1ccc(C2CCN(c3ccnc(NC4CCC4)n3)CC2)cc1 [Example 11.45]
20500 | COc1ccc(CNC(=O)c2cnc(N3CCC(c4ccc([C@H](C)NC(C)=O)cc4)CC3)nc2)cc1 [Example 18.19]
3200 | CC(=O)N[C@@H](C)c1ccc(C2CCN(c3cnccc3C)CC2)cc1 [Example 15.10]
1300 | COc1nc(OCC2CC2)ncc1N1CCC(c2ccc([C@H](C)NC(C)=O)cc2)CC1 [Example 16.11]
17900 | CC(=O)N[C@@H](C)c1ccc(C2CCN(c3ncc(C(=O)NCCn4ccnc4)cn3)CC2)cc1 [Example 18.73]
930 | CCOc1nccc(N2CCC(c3ccc([C@H](C)NC(C)=O)cc3)CC2)n1 [Example 11.37]
13900 | CNc1cc(N2CCC(c3ccc([C@H](C)NC(C)=O)cc3)CC2)ncn1 [Example 11.85]
16800 | CC(=O)N[C@@H](C)c1ccc(C2CCN(c3ncc(C(=O)N(C)CCN(C)C)cn3)CC2)cc1 [Example 18.43]
130 | CC(=O)N[C@@H](C)c1ccc(C2CCN(c3ccnc(O[C@@H]4CCOC4)c3)CC2)cc1 [Example 19.20]
1100 | COc1cccc(Oc2nccc(N3CCC(c4ccc([C@H](C)NC(C)=O)cc4)CC3)n2)c1 [Example 11.32]
410 | C[C@H](NC(=O)C1CC1)c1ccc(C2CCN(c3ncnc(N(C)CC4CC4)c3F)CC2)cc1 [Example 11.128]
40 | CC(=O)N[C@@H](C)c1ccc(C2CCN(c3ccnc(OC4CCC4)c3)CC2)cc1 [Example 19.2]
370 | CC(=O)N[C@@H](C)c1ccc(C2CCN(c3cc(OCc4ccccc4)ncn3)CC2)cc1 [Example 11.24]
340 | CC(=O)N[C@@H](C)c1ccc(C2CCN(c3ccnc(OCC4CCOC4)c3)CC2)cc1 (stereo partly drawn) [Example 19.18]
330 | CCOc1ccc(N2CCC(c3ccc([C@H](C)NC(=O)OC)cc3)CC2)c(C#N)c1 [Example 15.18]
1000 | CC(=O)N[C@@H](C)c1ccc(C2CCN(c3nccc(-c4ccc5c(c4)OCO5)n3)CC2)cc1 [Example 22.3]
9300 | CC(=O)N[C@@H](C)c1ccc(C2CCN(c3cccc(C(=O)O)c3)CC2)cc1 [Example 28.1, (S)-3-(4-(4-(1-Acetamidoethyl)phenyl)piperidin-1-yl)benzoic acid]
5200 | COC1CCN(C(=O)c2cnc(N3CCC(c4ccc([C@H](C)NC(C)=O)cc4)CC3)nc2)CC1 [Example 18.24]
5200 | CC(=O)N[C@@H](C)c1ccc(C2CCN(c3ccnc(NCc4ccoc4)n3)CC2)cc1 [Example 11.100]
590 | CC(=O)N[C@@H](C)c1ccc(C2CCN(c3ccnc(OC(C)c4ccccc4)c3)CC2)cc1 (stereo partly drawn) [Example 19.7]
